This note sets out measurements from US8821836B2, “SPARC binding peptides and uses thereof” (Abraxis BioScience, LLC, priority 2008, dated 2014).

Experiment [1] concerns PC3 prostatecarcinoma xenograft. The experiment can be described thus: Antitumor activity in PC3 xenograft model. The class given is in vivo, nude mouse. The note with it: for tumor growth inhibition: FIG. 13. As for the experimental part:
FIG. 13 depicts the antitumor activity of PD 15 and PD 21 in a human prostate cancer/nude mouse model system.
The PD 15 and PD 21-Fc fusion proteins were assayed for antitumor activity in a murine-human PC3 prostatecarcinoma xenograft model.

The target in experiment [2] is T1, SPARC (Homo sapiens, UniProt P09486).
T1 sequence (P09486 18-303): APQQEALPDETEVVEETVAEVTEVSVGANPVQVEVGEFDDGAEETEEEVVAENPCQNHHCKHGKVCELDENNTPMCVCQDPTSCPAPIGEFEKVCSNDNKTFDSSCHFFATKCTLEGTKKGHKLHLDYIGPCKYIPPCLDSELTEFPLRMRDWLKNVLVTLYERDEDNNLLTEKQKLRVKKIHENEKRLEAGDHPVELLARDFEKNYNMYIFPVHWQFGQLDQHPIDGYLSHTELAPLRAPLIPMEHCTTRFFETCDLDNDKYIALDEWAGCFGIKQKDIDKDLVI
The experiment can be described thus: Concentration dependent binding ELISA. Particulars: for binding to SPARC compared with anti-SPARC antibody: ELISA, FIG. 9.

The subject of experiment [3] is non-SPARC proteins in 5,000 proteins on the array. The experiment can be described thus: Protein microarray analysis (Invitrogen ProtoArray v.3), off target binding. From the text:
FIG. 8 depicts the Protoarray used to define off target binding of PD 15 and PD21.

Experiment [4] deals with sections of a human brain tumor (SPARC expressing tumor). The experiment can be described thus: Immunohistochemical staining of tumor sections. Particulars: IHC, FIGS. 10 and 11. The text has this: FIGS. 10 and 11 show the co-localization of SPARC (as indicated by immunohistochemical (IHC) staining with an anti-SPARC antibody) and the binding of PD 15 and PD 21 in sections of a human brain tumor (which have been epitope tagged for IHC staining.).

Experiment [5] concerns HT29 colon xenograft. The experiment can be described thus: Antitumor activity in HT29 xenograft model. In kind it is in vivo, mouse. Particulars: FIG. 14.

“Also recorded” adds a separate entry of the source.

Take “PD 15-Fc: fusion protein of SPARC binding peptide PD 15 with human IgG1 Fc domain (pFUSE-hIgG1-Fc2 vector) (YTRLHHWIPPQR)”: the tumor growth inhibition entry in experiment [1] is reported as “statistically significant tumor growth inhibition”.

With “PD 21-Fc: fusion protein of SPARC binding peptide PD 21 with human IgG1 Fc domain (pFUSE-hIgG1-Fc2 vector) (VTPLLKFRALSS)”, the tumor growth inhibition entry in experiment [1] was “statistically significant tumor growth inhibition”.

VTPLLKFRALSS [PD 21]: the “binding to SPARC compared with anti-SPARC antibody” value in experiment [2] is “only slightly weaker than that of an anti-SPARC antibody”. Further, the “cross reactivity with non-SPARC proteins” value in experiment [3] is recorded as “only minimal cross reactivity”. Also, the “binding to / staining of tumor tissue” value in experiment [4] is “binding”. Besides, the “antitumor activity, comparison” value in experiment [5] is “better antitumor activity than PD 15; also recorded: activity closely equivalent to Abraxane”.

For YTRLHHWIPPQR [PD 15], the “affinity for SPARC, PD 15 versus PD 21” value in experiment [2] (ELISA and IHC experiments) is “higher affinity for SPARC than PD 21”. In addition, in experiment [2], the “binding to SPARC compared with anti-SPARC antibody” value is given as “only slightly weaker than that of an anti-SPARC antibody”. Moreover, the “cross reactivity with non-SPARC proteins” value in experiment [3] is reported as “only minimal cross reactivity”. Besides, in experiment [4], the “binding to / staining of tumor tissue” value was “binding”. For the same substance, the “antitumor activity, comparison” value in experiment [1] is given as “better antitumor activity than PD21”.
